By inhibition is commonly meant the relative decrease from the control value, in per cent.

Common to all, as to format: cell-based
One assay deals with A549 cells. The experiment in a line: MTT cell proliferation assay in A549 lung cancer cells. The settings on record: Homo sapiens, DMSO treated cells as negative control, read-out: Cell Growth Inhibition in A549 Cells (at 30 μM). The method, then:
(§1) Compounds EKB-1, EKB-2, EKB-3, EKB-4, JDB-1, and JDB-2 were assayed for their ability to inhibit glucose uptake and cell growth in A549 lung cancer cell lines. A standard glucose uptake assay may be used to evaluate glucose uptake inhibition, and an MTT cell proliferation assay may be used to evaluate cancer cell growth inhibition. […] DMSO treated cells served as the negative control. […] Again, DMSO treated cells served as the negative control.

Assay [1] deals with basal glucose transport in A549 cells. The experiment in a line: standard glucose uptake assay in A549 lung cancer cells. The conditions noted are these: Homo sapiens, DMSO treated cells as negative control. The method, then:
as §1

In another assay the test system is H1299 cells. Put plainly: MTT cell proliferation assay in H1299 lung cancer cells. The settings on record: Homo sapiens, NCI-H1299, DMSO treated cells as negative control, read-out: Cell Growth Inhibition in H1299 Cells (at 30 μM). The method, then:
(§2) Compounds EKB-3 and EKB-4 were assayed for their ability to inhibit glucose uptake and cell growth in H1299 lung cancer cell lines. A standard glucose uptake assay may be used to evaluate glucose uptake inhibition, and an MTT cell proliferation assay may be used to evaluate cancer cell growth inhibition. […] DMSO treated cells served as the negative control. […] Again, DMSO treated cells served as the negative control. The glucose uptake inhibition and cell growth inhibition of comparative compound WZB-134 in H1299 cells is also provided in Table 2.

Assay [2] deals with basal glucose transport in H1299 cells. The experiment in a line: standard glucose uptake assay in H1299 lung cancer cells. The settings on record: Homo sapiens, NCI-H1299, DMSO treated cells as negative control. The procedure:
as §2

`COC(=O)C(Oc1cc(Cl)ccc1OCc1cccc(O)c1)c1cccc(O)c1` (stereo not shown) [EKB-1]: the inhibition at 30 µM in the assay on A549 cells worked out at 62.2%; in assay [1], 54.3%.
Regarding `COC(=O)C(Oc1ccc(Cl)cc1OCc1cccc(O)c1)c1cccc(O)c1` (stereo not shown) [EKB-2], the figures for the inhibition at 30 µM (in the assay with A549 cells; in assay [1]) were 51.5% and 56.1%, respectively.
`OCC(Oc1ccc(Cl)cc1OCc1cccc(O)c1)c1cccc(O)c1` (stereo not shown) [EKB-3]: the inhibition at 30 µM in the assay with A549 cells worked out at 55.5%; in the assay with H1299 cells it was 54%; in assay [1], 62.8%; in assay [2], 90.5%.
Consider `COC(=O)C(Oc1cc(Cl)ccc1OCc1cccc(O)c1)c1cccc(OC)c1` (stereo not shown) [JDB-1], for which the inhibition at 30 µM in the assay on A549 cells was 24.6%; in assay [1] it was 19.7%.
As to `COc1cccc(C(CO)Oc2cc(Cl)ccc2OCc2cccc(O)c2)c1` (stereo not shown) [JDB-2], the inhibition at 30 µM came out at 39.7% in the assay with A549 cells and 34.8% in assay [1].
In the case of `Oc1cccc(COc2cccc(F)c2OCc2cccc(O)c2)c1` [WZB-134, reference compound], the inhibition at 30 µM with A549 cells amounted to 10%; with H1299 cells, 10.6%; in assay [1], 96%; in assay [2] it was 92.5%.

These data come from US10647654B2, “Glucose transport inhibitors and methods of using same” (OHIO UNIVERSITY, priority 2016, dated 2020).
